Results from PMC6631223, “Chain-Branched Polyhydroxylated Octahydro-1H-Indoles as Potential Leads against Lysosomal Storage Diseases” (Pharmaceuticals, 2019).
Marks after values point to notes of the source that are not given here.

Tests used:
Assay type in all cases: biochemical
α-Glucosidase (rice) = biological target: T1, α-Glucosidase (rice) (Oryza sativa subsp. japonica, UniProt Q653V7); assay: Glycosidase inhibition: α-glucosidase (rice); details: read-out: inhibition % at 1000 μM
T1 construct: purchased Sigma-Aldrich Co
T1 sequence (Q653V7 34-885): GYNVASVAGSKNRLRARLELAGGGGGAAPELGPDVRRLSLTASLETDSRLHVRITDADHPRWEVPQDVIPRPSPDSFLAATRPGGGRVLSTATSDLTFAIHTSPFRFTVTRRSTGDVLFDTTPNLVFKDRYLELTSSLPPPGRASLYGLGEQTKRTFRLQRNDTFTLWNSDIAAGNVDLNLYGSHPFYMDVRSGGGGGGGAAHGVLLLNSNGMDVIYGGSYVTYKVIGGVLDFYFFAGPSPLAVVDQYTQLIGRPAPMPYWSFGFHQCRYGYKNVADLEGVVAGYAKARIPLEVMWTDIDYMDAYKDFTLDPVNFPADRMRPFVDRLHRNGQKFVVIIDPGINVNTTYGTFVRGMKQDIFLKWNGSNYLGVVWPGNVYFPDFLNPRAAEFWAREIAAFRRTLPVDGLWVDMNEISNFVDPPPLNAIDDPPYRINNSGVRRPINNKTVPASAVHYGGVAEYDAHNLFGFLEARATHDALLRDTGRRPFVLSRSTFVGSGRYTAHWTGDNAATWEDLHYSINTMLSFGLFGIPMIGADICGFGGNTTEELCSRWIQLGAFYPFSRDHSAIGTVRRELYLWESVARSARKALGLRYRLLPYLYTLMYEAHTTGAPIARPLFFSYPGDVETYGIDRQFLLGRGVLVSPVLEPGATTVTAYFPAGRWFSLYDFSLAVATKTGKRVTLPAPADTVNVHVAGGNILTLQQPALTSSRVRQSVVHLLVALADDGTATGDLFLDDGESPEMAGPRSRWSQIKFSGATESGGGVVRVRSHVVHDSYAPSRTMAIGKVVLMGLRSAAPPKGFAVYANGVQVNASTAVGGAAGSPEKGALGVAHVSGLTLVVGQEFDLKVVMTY
Source text: (§1) The enzymes α-glucosidase (from yeast, rice), β-glucosidase (from almonds, bovine liver), α-galactosidase (from coffee beans), β-galactosidase (from bovine liver), α-mannosidase (from jack beans), β-mannosidase (from snails), α-L-fucosidase (from bovine kidney), α-L-rhamnosidase (from Penicillium decumbens), β-glucuronidases (from Escherichia coli), α,α-trehalase (from porcine kidney), amyloglucosidase (from Aspergillus niger), p-nitrophenyl glycosides, and various disaccharides were purchased from Sigma-Aldrich Co. Brush border membranes were prepared from the rat small intestine according to the method of Kessler et al., and were assayed at pH 6.8 for rat intestinal maltase using maltose. For rat intestinal glucosidases and porcine kidney trehalase activities, the reaction mixture (0.2 mL) contained 25 mM substrate and the appropriate amount of enzyme, and the incubations were performed for 10 min at 37 °C. The reaction was stopped by heating at 100 °C for 3 min. After centrifugation (600 g; 10 min), 0.035 mL of the resulting reaction mixture were added to 2.1 mL of the Glucose CII-test Wako (Wako Pure Chemical Ind., Osaka, Japan). The absorbance at 505 nm was measured to determine the amount of the released D-glucose. Other glycosidase activities were determined using an appropriate p-nitrophenyl glycoside as substrate at the optimum pH of each enzyme. The reaction mixture (0.2 mL) contained 2 mM of the substrate and the appropriate amount of enzyme. The reaction was stopped by adding 0.4 mL of 400 mM Na2CO3. The released p-nitrophenol was measured spectrometrically at 400 nm.

Rat intestinal maltase = assay: Glycosidase inhibition: rat intestinal maltase; details: maltose, pH 6.8, 1000 μM
Source text: as §1

β-Glucosidase (almond) = assay: Glycosidase inhibition: β-glucosidase (almond); details: 1000 μM
Source text: as §1

[1] = biological target: T2, α-Galactosidase (coffee beans) (Coffea arabica, UniProt Q42656); assay: Glycosidase inhibition: α-galactosidase (coffee beans); details: read-out: inhibition % at 1000 μM
T2 construct: purchased Sigma-Aldrich Co
T2 sequence (Q42656 16-378): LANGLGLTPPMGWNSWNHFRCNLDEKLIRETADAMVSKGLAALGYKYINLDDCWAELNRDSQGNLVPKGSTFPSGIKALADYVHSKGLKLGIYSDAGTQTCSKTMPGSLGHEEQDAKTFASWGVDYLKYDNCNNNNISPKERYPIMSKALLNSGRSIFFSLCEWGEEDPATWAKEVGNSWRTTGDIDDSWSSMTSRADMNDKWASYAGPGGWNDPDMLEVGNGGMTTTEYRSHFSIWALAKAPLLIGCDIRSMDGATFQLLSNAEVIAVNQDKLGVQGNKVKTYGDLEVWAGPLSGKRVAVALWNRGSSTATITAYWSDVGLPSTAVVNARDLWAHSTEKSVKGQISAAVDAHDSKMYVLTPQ
Source text: as §1

[2] = biological target: T3, β-Galactosidase (bovine liver) (Bos taurus, UniProt Q58D55); assay: Glycosidase inhibition: β-galactosidase (bovine liver)
T3 sequence (Q58D55 28-653): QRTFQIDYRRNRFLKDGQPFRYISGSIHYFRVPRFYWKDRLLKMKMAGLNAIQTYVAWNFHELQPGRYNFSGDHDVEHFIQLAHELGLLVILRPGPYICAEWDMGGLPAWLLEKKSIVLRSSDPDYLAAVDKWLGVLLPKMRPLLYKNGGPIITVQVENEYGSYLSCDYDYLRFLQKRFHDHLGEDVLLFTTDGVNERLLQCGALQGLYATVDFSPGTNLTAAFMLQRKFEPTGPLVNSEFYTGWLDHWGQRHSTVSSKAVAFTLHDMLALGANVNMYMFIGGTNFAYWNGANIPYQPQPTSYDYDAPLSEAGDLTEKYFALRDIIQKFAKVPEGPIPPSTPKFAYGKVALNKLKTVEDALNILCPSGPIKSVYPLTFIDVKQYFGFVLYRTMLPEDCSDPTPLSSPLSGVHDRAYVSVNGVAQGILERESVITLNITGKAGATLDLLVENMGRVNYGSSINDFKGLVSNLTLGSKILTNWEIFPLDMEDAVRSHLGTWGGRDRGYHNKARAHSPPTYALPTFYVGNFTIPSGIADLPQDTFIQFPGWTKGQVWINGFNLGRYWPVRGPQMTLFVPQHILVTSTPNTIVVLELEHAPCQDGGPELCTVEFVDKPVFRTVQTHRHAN
Source text: as §1, with “After centrifugation (600 g; 10 min), 0.035 mL of the resulting reaction mixture were added to 2.1 mL of the Glucose CII-test Wako (Wako Pure Chemical Ind., Osaka, Japan).” left out, “The reaction mixture (0.2 mL) contained 2 mM of the substrate and the appropriate amount of enzyme. The reaction was stopped by adding 0.4 mL of 400 mM Na2CO3.” left out

[3] = biological target: T4, α-L-Fucosidase (bovine kidney) (Bos taurus, UniProt Q2KIM0); assay: Glycosidase inhibition: α-L-fucosidase (bovine kidney); details: read-out: inhibition % at 1000 μM
T4 construct: purchased Sigma-Aldrich Co; host or cells: bovine kidney
T4 sequence (Q2KIM0 23-468): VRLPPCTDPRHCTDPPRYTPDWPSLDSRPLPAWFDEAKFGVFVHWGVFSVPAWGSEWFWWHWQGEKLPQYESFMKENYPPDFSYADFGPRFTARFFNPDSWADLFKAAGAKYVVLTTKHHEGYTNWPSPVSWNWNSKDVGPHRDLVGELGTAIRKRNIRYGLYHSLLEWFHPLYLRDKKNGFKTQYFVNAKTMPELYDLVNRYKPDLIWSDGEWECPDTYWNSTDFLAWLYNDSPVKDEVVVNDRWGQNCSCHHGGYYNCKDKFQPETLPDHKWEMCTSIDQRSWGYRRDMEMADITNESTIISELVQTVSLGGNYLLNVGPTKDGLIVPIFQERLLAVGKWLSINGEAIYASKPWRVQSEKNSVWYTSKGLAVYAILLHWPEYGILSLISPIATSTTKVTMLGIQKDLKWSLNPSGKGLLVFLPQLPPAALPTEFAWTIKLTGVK
Source text: as §1

β-Glucronidase (E.coli) = biological target: T5, β-Glucronidase (E.coli) (Escherichia coli, UniProt P05804); assay: Glycosidase inhibition: β-glucuronidase (E. coli); details: β-glucuronidase, E. coli; 1000 μM
T5 construct: purchased Sigma-Aldrich Co
T5 sequence (P05804 whole entry): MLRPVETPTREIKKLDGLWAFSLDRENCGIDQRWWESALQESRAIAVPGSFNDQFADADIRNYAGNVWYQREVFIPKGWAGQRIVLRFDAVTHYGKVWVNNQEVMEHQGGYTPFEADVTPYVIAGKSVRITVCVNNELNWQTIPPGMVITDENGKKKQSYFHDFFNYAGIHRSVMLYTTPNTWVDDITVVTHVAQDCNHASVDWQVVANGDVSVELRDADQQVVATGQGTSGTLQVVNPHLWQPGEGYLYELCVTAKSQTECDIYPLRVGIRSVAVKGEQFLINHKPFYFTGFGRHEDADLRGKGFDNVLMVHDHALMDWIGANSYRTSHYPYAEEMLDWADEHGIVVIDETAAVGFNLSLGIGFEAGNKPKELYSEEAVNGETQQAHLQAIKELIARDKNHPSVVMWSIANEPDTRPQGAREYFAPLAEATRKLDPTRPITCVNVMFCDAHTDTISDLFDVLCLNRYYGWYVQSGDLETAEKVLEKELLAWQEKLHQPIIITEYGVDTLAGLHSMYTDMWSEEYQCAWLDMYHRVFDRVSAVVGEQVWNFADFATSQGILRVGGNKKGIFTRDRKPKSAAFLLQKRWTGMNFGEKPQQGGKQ
Source text: as §1

Compound | inhibition at 1000 µM (α-Glucosidase (rice)) [%] | inhibition % at 1000 μM (Rat intestinal maltase) [% ^a] | inhibition % at 1000 μM (β-Glucosidase (almond)) [% ^a] | inhibition at 1000 µM [1] [%] | inhibition at 1000 µM [2] [%] | inhibition at 1000 µM [3] [%] | inhibition at 1000 µM (β-Glucronidase (E.coli)) [%]
CC[C@H]1CN[C@H]2C[C@@H](O)[C@H](O)[C@@H](O)[C@H]12 [Compound 13, (3R,3aR,4S,5S,6R,7aS)-3-ethyloctahydro-1H-indole-4,5,6-triol] | 0 | 0 | 5 | 0 | < 50 | 12.9 | 12.3
CC[C@@H]1CN[C@H]2C[C@@H](O)[C@H](O)[C@@H](O)[C@H]12 [Compound 10, (3S,3aR,4S,5S,6R,7aS)-3-Ethyloctahydro-1H-indole-4,5,6-triol] | 0 | 4.1 | 12 | 15.9 | < 50 | 7.5 | 18.1
